# In BindingDB's records for doi:10.1016/j.bmcl.2011.03.068 (The University of Utah, 2011):
# Biological target: Autotaxin (Homo sapiens, UniProt Q13822)
# Assay: Inhibition of human recombinant ATX lysophospholipase activity expressed in insect sf9 cells using FS-3 fluorogenic substrate preincubated for 10 mins measured after 5 and 25 mins by fluorometric analysis
row,Ki,SMILES
1,24 nM,CCCCCCCCCCCCCC(=O)Nc1ccc(C(O)P(=O)(O)O)cc1 (configuration not stated)
2,24 nM,CCCCCCCCCC(=O)Nc1ccc(C(O)P(=O)(O)O)cc1 (configuration not stated)
